# Data reported in patent US4182896A, “Indane derivatives” (Societe Hexachimie, priority 1974, dated 1980).
# Where a name gives a salt, the structure may show the parent alone.
# Key:
# [1] = tested on: SPF male rats, OFA strain; assay: Anti-inflammatory activity: paw swelling after subcutaneous plantar injection of carraghenine, oral administration; type: in vivo; conditions: for percentage reduction in the inflammation / ED50 (50% effective dose), anti-inflammatory: rat; for percentage reduction in the inflammation / inhibition in vivo at 4 mg/kg / inhibition in vivo at 256 mg/kg / inhibition in vivo at 32 mg/kg / inhibition in vivo at 64 mg/kg / inhibition in vivo at 128 mg/kg / inhibition in vivo at 16 mg/kg / inhibition in vivo at 512 mg/kg: carraghenine; for inhibition in vivo at 4 mg/kg / inhibition in vivo at 256 mg/kg / inhibition in vivo at 32 mg/kg / inhibition in vivo at 64 mg/kg / inhibition in vivo at 128 mg/kg / ED50 / inhibition in vivo at 16 mg/kg / inhibition in vivo at 512 mg/kg: Rattus norvegicus, po; for inhibition in vivo at 4 mg/kg / inhibition in vivo at 256 mg/kg / inhibition in vivo at 32 mg/kg / inhibition in vivo at 64 mg/kg / inhibition in vivo at 128 mg/kg / inhibition in vivo at 16 mg/kg / inhibition in vivo at 512 mg/kg: read-out: percentage reduction in the inflammation; for ED50 (50% effective dose), anti-inflammatory: oral; for ED50 (50% effective dose), anti-inflammatory / ED50: at the moment of greatest swelling of the controls; for ED50: read-out: ED50 (50% effective dose), anti-inflammatory; for inhibition in vivo at 512 mg/kg: 512 mg/kg oral
# Method: Anti-inflammatory activity
# The products to be tested are administered orally to batches of 12 SPF male rats, OFA strain, weighing 120-130 g, 2 hours and 30 minutes (1/2 dose each time) before the subcutaneous plantar injection of 0.05 ml of a 1% strength solution of carraghenine. The volume of the back paw which received the phlogogenic agent is measured at regular intervals. The 50% effective dose is calculated at the moment of greatest swelling of the controls.
# The results are given in Tables I to IV below, in which the percentage reduction in the inflammation is noted.
# [2] = tested on: male mice (SPF1, OF1 strain); assay: Analgesic activity: inhibition of pain reactions (abdominal twistings) after intraperitoneal phenylbenzoquinone, oral administration; type: in vivo; conditions: for inhibition in vivo at 4 mg/kg: 4 mg/kg oral; for ED50: read-out: ED50 (50% effective dose), analgesic
# Method: The products tested are administered orally to batches of 6 male mice (SPF1, OF1 strain) weighing 19-20 g.
# 1 hour later, 0.3 ml of a 0.02% strength solution of phenylbenzoquinone is injected intraperitoneally into each mouse and, from the 5th to the 10th minute after the latter treatment, the number of pain reactions (abdominal twistings) is counted.
# Table V to VIII below give the percentage inhibition of these reactions.
# [3] = Mus musculus, po, read-out: percentage inhibition of pain reactions
# [4] = Mus musculus, po, 64 mg/kg oral, read-out: percentage inhibition of pain reactions
# [5] = Mus musculus, po, 32 mg/kg oral, read-out: percentage inhibition of pain reactions
# [6] = Mus musculus, po, 128 mg/kg oral, read-out: percentage inhibition of pain reactions
# [7] = Mus musculus, po, 256 mg/kg oral, read-out: percentage inhibition of pain reactions
# [8] = Mus musculus, po, 16 mg/kg oral, read-out: percentage inhibition of pain reactions
# [9] = Mus musculus, po, 8 mg/kg oral, read-out: percentage inhibition of pain reactions
Compound,inhibition in vivo at 4 mg/kg ([1]; 4 mg/kg oral) [%],inhibition in vivo at 256 mg/kg ([1]; 256 mg/kg oral) [%],"inhibition in vivo at 64 mg/kg [2, 4] [%]",inhibition in vivo at 32 mg/kg ([1]; 32 mg/kg oral) [%],inhibition in vivo at 64 mg/kg ([1]; 64 mg/kg oral) [%],inhibition in vivo at 128 mg/kg ([1]; 128 mg/kg oral) [%],ED50 [1] [mg/kg],"inhibition in vivo at 32 mg/kg [2, 5] [%]","ED50 ([2]; Mus musculus, po) [mg/kg]","inhibition in vivo at 128 mg/kg [2, 6] [%]",inhibition in vivo at 16 mg/kg ([1]; 16 mg/kg oral) [%],"inhibition in vivo at 16 mg/kg [2, 8] [%]","inhibition in vivo at 8 mg/kg [2, 9] [%]",other results
"CC(C(=O)O)c1ccc2c(c1)CC(C(C)C)C2 (stereo not shown) [Example 19, Dimethylaminoethanol salt of 2-methyl-[2-isopropyl-indanyl-(5)]-acetic acid]",25,82,96,–,–,–,–,–,–,–,–,–,–,"percentage reduction in the inflammation ([1]; 8 mg/kg oral): 20%; percentage reduction in the inflammation ([1]; 16 mg/kg oral): 44%; percentage reduction in the inflammation ([1]; 32 mg/kg oral): 48%; percentage reduction in the inflammation ([1]; 64 mg/kg oral): 63%; percentage reduction in the inflammation ([1]; 128 mg/kg oral): 67%; ED50 (50% effective dose), anti-inflammatory [1]: 30 mg/kg; percentage inhibition of pain reactions ([2]; 8 mg/kg oral, mouse): 31%; percentage inhibition of pain reactions ([2]; 16 mg/kg oral, mouse): 54%; percentage inhibition of pain reactions ([2]; 32 mg/kg oral, mouse): 82%; inhibition in vivo at 4 mg/kg [2, 3]: 5%; ED50 (50% effective dose), analgesic ([2]; oral, mouse): 14 mg/kg"
"CCC(C(=O)O)c1ccc2c(c1)CC(C(C)C)C2 (stereo not shown) [Example 20, Dimethylaminoethanol salt of 2-ethyl-[2-isopropyl-indanyl-(5)]-acetic acid]",–,37,–,24,25,38,> 256,26,175,–,–,–,–,"percentage reduction in the inflammation ([1]; 16 mg/kg oral): 16%; percentage inhibition of pain reactions ([2]; 128 mg/kg oral, mouse): 27%; percentage inhibition of pain reactions ([2]; 256 mg/kg oral, mouse): 74%; percentage inhibition of pain reactions ([2]; 512 mg/kg oral, mouse): 100%"
"CC1Cc2ccc(CC(=O)OCCN3CCOCC3)cc2C1 (stereo not shown) [Example 21, Hydrochloride of the morpholino-ethyl ester of [2-methyl-indanyl-(5)]-acetic acid]",–,68,2,17,25,52,130,–,200,51,–,–,–,"inhibition in vivo at 256 mg/kg [2, 7]: 71%; inhibition in vivo at 512 mg/kg ([2]; Mus musculus, po, 512 mg/kg oral, read-out: percentage inhibition of pain reactions): 81%"
"CC1Cc2ccc(C(C)C(=O)OCCN3CCOCC3)cc2C1 (stereo not shown) [Example 22, Oxalate of the morpholino-ethyl ester of 2-methyl-[2-methyl-indanyl-(5)]-acetic acid]",–,34,73,7,12,11,480,19,45,86,17,13,–,"inhibition in vivo at 512 mg/kg [1]: 52%; inhibition in vivo at 256 mg/kg [2, 7]: 98%"
"CC1(C)Cc2ccc(CC(=O)OCCN3CCOCC3)cc2C1 [Example 23, Hydrochloride of the morpholino-ethyl ester of [2,2-dimethyl-indanyl-(5)]-acetic acid]",–,55,82,9,30,50,140,36,–,45,–,20,1,"inhibition in vivo at 512 mg/kg [1]: 90%; inhibition in vivo at 256 mg/kg [2, 7]: 45%"
"CC(C(=O)OCCN1CCOCC1)c1ccc2c(c1)CC(C)(C)C2 (stereo not shown) [Example 24, Hydrochloride of the morpholino-ethyl ester of 2-methyl-[2,2-dimethyl-indanyl-(5)]-acetic acid]",–,57,53,21,36,50,142,32,35,97,7,24,0,inhibition in vivo at 512 mg/kg [1]: 73%
"CC(C(=O)OCCN1CCOCC1)c1ccc2c(c1)CC(C1CCCCC1)C2 (stereo not shown) [Example 25, Hydrochloride of the morpholino-ethyl ester of 2-methyl-[2-cyclohexyl-indanyl-(5)]-acetic acid]",–,10,50,28,7,12,> 256,19,80,64,26,–,–,–
"CCC1Cc2ccc(C(C)C(=O)OCCN3CCOCC3)cc2C1 (stereo not shown) [Example 26, Oxalate of the morpholino-ethyl ester of 2-methyl-[2-ethyl-indanyl-(5)]-acetic acid]",–,70,94,47,54,68,40,69,18,–,38,52,17,–
"CC(C(=O)OCCN(C)C)c1ccc2c(c1)CC(C(C)C)C2 (stereo not shown) [Example 27, Hydrochloride of the dimethylaminoethyl ester of 2-methyl-[2-isopropyl-indanyl-(5)]-acetic acid]",29,76,94,–,61,64,22,69,–,99,54,42,7,–
"CCN(CC)CCOC(=O)C(C)c1ccc2c(c1)CC(C(C)C)C2 (stereo not shown) [Example 28, Oxalate of the diethylaminoethyl ester of 2-methyl-[2-isopropylindanyl-(5)]-acetic acid]",37,79,86,–,66,72,24,66,20,–,31,40,20,"inhibition in vivo at 4 mg/kg [2, 3]: 21%"
"CC(C(=O)OC(C)(C)CN(C)C)c1ccc2c(c1)CC(C(C)C)C2.O=C(O)/C=C\C(=O)O (stereo not drawn) [Example 29, Maleate of the dimethylamino-α-dimethyl-ethyl ester of 2-methyl-[2-isopropyl-indanyl-(5)]-acetic acid]",–,–,–,–,–,–,–,–,–,–,–,–,–,"percentage reduction in the inflammation ([1]; 4 mg/kg oral): 12%; percentage reduction in the inflammation ([1]; 16 mg/kg oral): 35%; percentage reduction in the inflammation ([1]; 64 mg/kg oral): 45%; percentage reduction in the inflammation ([1]; 128 mg/kg oral): 72%; percentage reduction in the inflammation ([1]; 256 mg/kg oral): 65%; ED50 (50% effective dose), anti-inflammatory [1]: 55 mg/kg; percentage inhibition of pain reactions ([2]; 16 mg/kg oral, mouse): 8%; percentage inhibition of pain reactions ([2]; 32 mg/kg oral, mouse): 43%; percentage inhibition of pain reactions ([2]; 64 mg/kg oral, mouse): 57%; percentage inhibition of pain reactions ([2]; 128 mg/kg oral, mouse): 86%; percentage inhibition of pain reactions ([2]; 256 mg/kg oral, mouse): 96%"
"CC(C(=O)OCCN1CCCCC1)c1ccc2c(c1)CC(C(C)C)C2 (stereo not shown) [Example 30, Oxalate of the piperidine-ethyl ester of 2-methyl-[2-isopropyl-indanyl-(5)]-acetic acid]",10,52,73,–,55,47,–,32,37,99,32,11,–,–
"CC(C(=O)OCCN1CCCC1)c1ccc2c(c1)CC(C(C)C)C2 (stereo not shown) [Example 32, Maleate of the pyrrolidino-ethyl ester of 2-methyl-[2-isopropyl-indanyl-(5)]-acetic acid]",19,–,99,–,59,55,65,79,18,–,21,47,6,–
